Experimental data as given in US7833940B2, “2-(substituted phenyl)-6-hydroxy or alkoxy-5-substituted-4-pyrimidinecarboxylates and their use as herbicides” (Dow AgroSciences LLC, priority 2008, dated 2010).

Legend:
[1] = test system: Redroot Pigweed (Amatanthus retroflexus); test: General postemergence herbicidal activity, AMARE; format: in vivo; details: post-emergent, 280 g ai/ha, visual score after 14 days (0 = no injury, 100 = complete kill)
Method: (§1) Seeds or nutlets of the desired test plant species were planted in Sun Gro MetroMix® 306 planting mixture, which typically has a pH of 6.0 to 6.8 and an organic matter content of about 30 percent, in plastic pots with a surface area of 64 square centimeters. When required to ensure good germination and healthy plants, a fungicide treatment and/or other chemical or physical treatment was applied. The plants were grown for 7-21 days in a greenhouse with an approximate 15 hour photoperiod which was maintained at about 23-29° C. during the day and 22-28° C. during the night. Nutrients and water were added on a regular basis and supplemental lighting was provided with overhead metal halide 1000-Watt lamps as necessary. The plants were employed for testing when they reached the first or second true leaf stage.
(§2) A weighed amount, determined by the highest rate to be tested, of each test compound was dissolved in 4 mL of a 97:3 v/v (volume/volume) mixture of acetone and dimethyl sulfoxide (DMSO) to obtain concentrated stock solutions. […] The concentrated stock solutions obtained were diluted with 20 mL of an aqueous mixture containing acetone, water, isopropyl alcohol, DMSO, Atplus 411F crop oil concentrate, and Triton® X-155 surfactant in a 48.5:39:10:1.5:1.0:0.02 v/v ratio to obtain spray solutions containing the highest application rates. […]
(§3) The treated plants and control plants were placed in a greenhouse as described above and watered by sub-irrigation to prevent wash-off of the test compounds. After 14 days, the condition of the test plants as compared with that of the untreated plants was determined visually and scored on a scale of 0 to 100 percent where 0 corresponds to no injury and 100 corresponds to complete kill.

[2] = test system: Lambsquarters (Chenopodium album); test: General postemergence herbicidal activity, CHEAL; format: in vivo; details: post-emergent, 280 g ai/ha, visual score after 14 days (0 = no injury, 100 = complete kill)
Method: as §1, §2, §3

[3] = test system: Common Sunflower (Helianthus annuus); test: General postemergence herbicidal activity, HELAN; format: in vivo; details: post-emergent, 280 g ai/ha, visual score after 14 days (0 = no injury, 100 = complete kill)
Method: as §1, §2, §3

[4] = test system: Wild Pointsettia (Euphorbia heterophylla); test: General postemergence herbicidal activity, EPHHL; format: in vivo; details: post-emergent, 280 g ai/ha, visual score after 14 days (0 = no injury, 100 = complete kill)
Method: as §1, §2, §3

melting point | SMILES | % Growth Reduction AMARE [1] | % Growth Reduction CHEAL [2] | % Growth Reduction HELAN [3] | % Growth Reduction EPHHL [4]
215 to 217 °C | COC(=O)c1nc(-c2ccc(Cl)c(OC)c2F)nc(O)c1Cl [Compound 1, 6-hydroxy-2-(4-chloro-2-fluoro-3-methoxyphenyl)-5-chloropyrimidine-4-carboxylic acid methyl ester] | 100% | 100% | 90% | 100%
192 to 195 °C | COC(=O)c1nc(-c2ccc(Cl)c(OC)c2F)nc(O)c1Br [Compound 2, 6-hydroxy-2-(4-chloro-2-fluoro-3-methoxyphenyl)-5-bromopyrimidine-4-carboxylic acid methyl ester] | 100% | 95% | 85% | 100%
177 to 179 °C | COC(=O)c1nc(-c2ccc(Cl)c(OC)c2F)nc(O)c1OC [Compound 3, 6-hydroxy-2-(4-chloro-2-fluoro-3-methoxyphenyl)-5-methoxypyrimidine-4-carboxylic acid methyl ester] | 40% | 90% | 10% | 100%
